Results from US9491944B2, “Pesticidal compositions and related methods” (DOW AGROSCIENCES LLC, priority 2013, dated 2016).

Experiments:
[1] = tested on: Green Peach Aphid (Myzus persicae) (GPA) (MYZUPE); assay: Bioassay for Green Peach Aphid (GPA) foliar spray on cabbage seedlings; assay type: in vivo; conditions: 72 h, 200 ppm foliar spray on cabbage seedlings, graded after three days, Abbott corrected % control, read-out: GPA % Control (or Mortality) rating
Method: Bioassay for Green Peach Aphid (Myzus persicae) (GPA) (MYZUPE)
Cabbage seedlings grown in 3-inch pots, with 2-3 small (3-5 cm) true leaves, were used as test substrate. The seedlings were infested with 20-50 GPA (wingless adult and nymph stages) one day prior to chemical application. Four pots with individual seedlings were used for each treatment. Test compounds (2 mg) were dissolved in 2 mL of acetone/methanol (1:1) solvent, forming stock solutions of 1000 ppm test compound. The stock solutions were diluted 5× with 0.025% Tween 20 in H2O to obtain the solution at 200 ppm test compound. A hand-held aspirator-type sprayer was used for spraying a solution to both sides of cabbage leaves until runoff Reference plants (solvent check) were sprayed with the diluent only containing 20% by volume of acetone/methanol (1:1) solvent. Treated plants were held in a holding room for three days at approximately 25° C. and ambient relative humidity (RH) prior to grading. Evaluation was conducted by counting the number of live aphids per plant under a microscope. Percent control was measured by using Abbott's correction formula (W. S. Abbott, “A Method of Computing the Effectiveness of an Insecticide,” J. Econ. Entomol. 18 (1925), pp. 265-267) as follows Corrected % Control=100*(X−Y)/X
X=No. of live aphids on solvent check plants and
Y=No. of live aphids on treated plants.
Biological Data for Green Peach Aphid (GPA) (MYZUPE) and Sweetpotato Whitefly-crawler (WF) (BEMITA)” (see Table section).
(§1) The mortality efficiency of the pesticidal compounds against GPA and WF insects was determined after treatment.

[2] = tested on: Sweetpotato Whitefly-Crawler (WF) (Bemisia tabaci) (BEMITA); assay: Insecticidal test for Sweetpotato Whitefly-crawler (WF) in foliar spray assay on cotton plants; assay type: in vivo; conditions: 216 h, 200 ppm foliar spray on cotton plants, graded after 9 days, Abbott corrected % control, read-out: WF % Control (or Mortality) rating
Method: Insecticidal Test for Sweetpotato Whitefly-Crawler (WF) (Bemisia tabaci) (BEMITA) in Foliar Spray Assay
Cotton plants (Gossypium hirsutum) grown in 3-inch pots, with 1 small (4-5 cm) true leaves, were used as test substrate. The plants were infested with 200-400 whitefly eggs 4-5 days prior to chemical application. Four pots with individual plants were used for each treatment. Test compounds (2 mg) were dissolved in 1 mL of acetone solvent, forming stock solutions of 2000 ppm test compound. The stock solutions were diluted 10× with 0.025% Tween 20 in H2O (diluents) to obtain the solution at 200 ppm test compound. A hand-held aspirator-type sprayer was used for spraying a solution to both sides of cotton leaves until runoff. Reference plants (solvent check) were sprayed with the diluent only containing 10% by volume of acetone solvent. Treated plants were held in a holding room for 9 days at approximately 25° C. and ambient relative humidity (RH) prior to grading. Evaluation was conducted by counting the number of live 3-4 nymph stage per plant under a microscope. Percent control was measured by using Abbott's correction formula (W. S. Abbott, “A Method of Computing the Effectiveness of an Insecticide,” J. Econ. Entomol. 18 (1925), pp. 265-267) as follows. Corrected % Control=100*(X−Y)/X
X=No. of live nymphs on solvent check plants and
Y=No. of live nymphs on treated plants.
Biological Data for Green Peach Aphid (MYZUPE) and Sweetpotato Whitefly-crawler (WF) (BEMITA)” (see Table section).
as §1

In the case of `Clc1ccccc1-c1cn(-c2cccnc2)nn1` [Compound F1], the mortality at 200 ppm [1] is reported as 0 to 80% and the mortality at 200 ppm [2] is reported as 0 to 80%.
`FC(F)(F)c1ccc(-c2cn(-c3cccnc3)nn2)cn1` [Compound F2, 5-[1-(Pyridin-3-yl)-1H-1,2,3-triazol-4-yl]-2-(trifluoromethyl)pyridine] was tested, and the mortality at 200 ppm [1] was 80 to 100% and the mortality at 200 ppm [2] was 0 to 80%.
In the case of `CSc1cccc(-c2cn(-c3cccnc3)nn2)c1` [Compound F3], the mortality at 200 ppm [1] is reported as 80 to 100% and the mortality at 200 ppm [2] is reported as < 0%.
`Cc1ccc(-c2cn(-c3cccnc3)nn2)nc1` [Compound F4, 5-Methyl-2-[1-(pyridin-3-yl)-1H-1,2,3-triazol-4-yl]pyridine] was tested, and the mortality at 200 ppm [1] was 80 to 100% and the mortality at 200 ppm [2] was 80 to 100%.
`COc1cccc(-c2cn(-c3cccnc3)nn2)n1` [Compound F5, 2-Methoxy-6-[1-(pyridin-3-yl)-1H-1,2,3-triazol-4-yl]pyridine] was tested, and the mortality at 200 ppm [1] was 80 to 100% and the mortality at 200 ppm [2] was 0 to 80%.
`FC(F)(F)Oc1cccc(-c2cn(-c3cccnc3)nn2)c1` [Compound F6, 3-(4-(3-(trifluoromethoxy)phenyl)-1H-1,2,3-triazol-1-yl)pyridine] gave a mortality at 200 ppm [1] of 80 to 100% and a mortality at 200 ppm [2] of 0 to 80%.
`FC(F)(F)c1cccc(-c2cn(-c3cccnc3)nn2)n1` [Compound F7, 2-[1-(pyridin-3-yl)-1H-1,2,3-triazol-4-yl]-6-(trifluoromethyl) pyridine] was tested, and the mortality at 200 ppm [1] was 80 to 100% and the mortality at 200 ppm [2] was 80 to 100%.
`FC(F)(F)c1ccc(-c2cn(-c3cccnc3)nn2)nc1` [Compound F8, 2-[1-(Pyridin-3-yl)-1H-1,2,3-triazol-4-yl]-5-(trifluoromethyl)pyridine] showed a mortality at 200 ppm [1] of 80 to 100% and a mortality at 200 ppm [2] of 80 to 100%.
In the case of `Brc1cccc(-c2cn(-c3cccnc3)nn2)n1` [Compound F9, 2-Bromo-6-[1-(pyridin-3-yl)-1H-1,2,3-triazol-4-yl]pyridine], the mortality at 200 ppm [1] is reported as 80 to 100% and the mortality at 200 ppm [2] is reported as 0 to 80%.
`Clc1cccc(-c2cn(-c3cccnc3)nn2)n1` [Compound F10, 2-Chloro-6-[1-(pyridin-3-yl)-1H-1,2,3-triazol-4-yl]pyridine] showed a mortality at 200 ppm [1] of 80 to 100% and a mortality at 200 ppm [2] of 0 to 80%.
With `Clc1cccc(-c2cn(-c3cccnc3)nn2)c1` [Compound F11] the mortality at 200 ppm [1] was 0 to 80% and the mortality at 200 ppm [2] was < 0%.
For `Cc1cccc(-c2cn(-c3cccnc3)nn2)n1` [Compound F12, 2-methyl-6-(1-(pyridin-3-yl)-1H-1,2,3-triazol-4-yl)pyridine], the mortality at 200 ppm [1] was 80 to 100% and the mortality at 200 ppm [2] was 80 to 100%.
For `FC(F)(F)c1cccc(-c2cn(-c3cccnc3)nn2)c1` [Compound F13], the mortality at 200 ppm [1] was 80 to 100% and the mortality at 200 ppm [2] was < 0%.
